For this assay, the system named is L1210 leukemia ip in BDF1 mice, survival T/C. Kind of assay: NCI In Vivo Anticancer Drug Screen. Data for tumor model L1210 Leukemia (intraperitoneal) in B6D2F1 (BDF1) mice. Particulars: endpoint: mean survival time, higher = longer survival. The method in brief: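 Value reflects the ratio of survival in compound-treated mice to survival in vehicle-treated controls, with both groups carrying the same transplanted tumor.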

[1] abbreviates: dose: 100.0 mg/kg/injection, schedule: Q01DX009 (ip), vehicle: Klucel (hydroxypropylcellulose) (HPC).
[2] abbreviates: dose: 100.0 mg/kg/injection, schedule: Q04DX003 (ip), vehicle: Klucel (hydroxypropylcellulose) (HPC).
Setting [3] is: dose: 200.0 mg/kg/injection, schedule: Q01DX009 (ip), vehicle: Klucel (hydroxypropylcellulose) (HPC).
The mark [4] stands for this setting: dose: 200.0 mg/kg/injection, schedule: Q04DX003 (ip), vehicle: Klucel (hydroxypropylcellulose) (HPC).
Setting [5] is: dose: 400.0 mg/kg/injection, schedule: Q01DX009 (ip), vehicle: Klucel (hydroxypropylcellulose) (HPC).
Setting [6] is: dose: 400.0 mg/kg/injection, schedule: Q04DX003 (ip), vehicle: Klucel (hydroxypropylcellulose) (HPC).
[7] abbreviates: dose: 100.0 mg/kg/injection, schedule: Q01DX009 (ip), vehicle: saline.
[8] abbreviates: dose: 100.0 mg/kg/injection, schedule: Q04DX003 (ip), vehicle: saline.
Where [9] appears, read: dose: 200.0 mg/kg/injection, schedule: Q01DX009 (ip), vehicle: saline.
The mark [10] stands for this setting: dose: 200.0 mg/kg/injection, schedule: Q04DX003 (ip), vehicle: saline.
Setting [11] is: dose: 400.0 mg/kg/injection, schedule: Q01DX009 (ip), vehicle: saline.
[12] abbreviates: dose: 400.0 mg/kg/injection, schedule: Q04DX003 (ip), vehicle: saline.
[13] abbreviates: dose: 100.0 mg/kg/injection, schedule: Q01DX001 (ip), vehicle: carboxymethylcellulose (CMC).
[14] abbreviates: dose: 100.0 mg/kg/injection, schedule: Q01DX001 (ip), vehicle: saline.
The mark [15] stands for this setting: dose: 200.0 mg/kg/injection, schedule: Q01DX001 (ip), vehicle: saline.
[16] abbreviates: dose: 400.0 mg/kg/injection, schedule: Q01DX001 (ip), vehicle: saline.
The mark [17] stands for this setting: dose: 100.0 mg/kg/injection, schedule: Q04DX003 (ip), vehicle: saline with Tween-80.
Setting [18] is: dose: 200.0 mg/kg/injection, schedule: Q04DX003 (ip), vehicle: saline with Tween-80.
Where [19] appears, read: dose: 400.0 mg/kg/injection, schedule: Q04DX003 (ip), vehicle: saline with Tween-80.
[20] abbreviates: dose: 100.0 mg/kg/injection, schedule: Q01DX001 (ip), vehicle: Klucel (hydroxypropylcellulose) (HPC).
Setting [21] is: dose: 200.0 mg/kg/injection, schedule: Q01DX001 (ip), vehicle: Klucel (hydroxypropylcellulose) (HPC).
Where [22] appears, read: dose: 100.0 mg/kg/injection, schedule: Q04DX002 (ip), vehicle: Klucel (hydroxypropylcellulose) (HPC).
Setting [23] is: dose: 200.0 mg/kg/injection, schedule: Q04DX002 (ip), vehicle: Klucel (hydroxypropylcellulose) (HPC).
Where [24] appears, read: dose: 400.0 mg/kg/injection, schedule: Q04DX002 (ip), vehicle: Klucel (hydroxypropylcellulose) (HPC).

Several values for one entry are separate records, joined by “and”; a condition that tells them apart may be missing. Equal entries are not always repeated. Inconclusive results and toxic doses are left out.

For the molecule `CC(C)CC(CC(C)C)NCCO`, the T/C (dose: 75.0 mg/kg/injection, schedule: Q01DX001 (ip), vehicle: acid diluted with saline) was 103 % of control.
As to `Cc1ccc(C(C)C)c(Oc2cc(C)ccc2C(C)C)c1`, the T/C by setting is: under setting [1], 98 % of control; under setting [2], 97 % of control; under setting [3], 102 % of control; under setting [4], 93 % of control; under setting [5], 108 % of control; under setting [6], 93 % of control.
On to `O=C(Nc1ccc(C2=NCCN2)cc1)c1cccc(C(=O)Nc2ccc(C3=NCCN3)cc2)c1O`, for which the T/C is 120 % of control (dose: 2.5 mg/kg/injection, schedule: Q01DX Z (ip), vehicle: carboxymethylcellulose (CMC)); 105 % of control (dose: 5.0 mg/kg/injection, schedule: Q01DX Z (ip), vehicle: carboxymethylcellulose (CMC)); 109 % of control (dose: 7.5 mg/kg/injection, schedule: Q01DX Z (ip), vehicle: carboxymethylcellulose (CMC)); 157 % of control (dose: 10.0 mg/kg/injection, schedule: Q01DX Z (ip), vehicle: carboxymethylcellulose (CMC)); 259 % of control (dose: 15.0 mg/kg/injection, schedule: Q01DX Z (ip), vehicle: carboxymethylcellulose (CMC)); 272 % of control (dose: 20.0 mg/kg/injection, schedule: Q01DX Z (ip), vehicle: carboxymethylcellulose (CMC)). Moreover, the T/C (dose: 30.0 mg/kg/injection, schedule: Q01DX Z (ip), vehicle: carboxymethylcellulose (CMC)) is 296 % of control; the T/C (dose: 31.0 mg/kg/injection, schedule: Q01DX Z (oral), vehicle: carboxymethylcellulose (CMC)) is 106 % of control; the T/C (dose: 62.0 mg/kg/injection, schedule: Q01DX Z (oral), vehicle: carboxymethylcellulose (CMC)) was 102 % of control; the T/C (dose: 125.0 mg/kg/injection, schedule: Q01DX Z (oral), vehicle: carboxymethylcellulose (CMC)) is 113 % of control; the T/C (dose: 250.0 mg/kg/injection, schedule: Q01DX Z (oral), vehicle: carboxymethylcellulose (CMC)) is 104 % of control.
With `CC1=C(C)CC2C(=O)OC(=O)C2C1` (stereo not given), the T/C was 98 % of control under setting [7]; 106 % of control under setting [2]; 98 % of control under setting [8]; 102 % of control under setting [9]; 95 % of control under setting [4]; 105 % of control under setting [10]. The T/C by setting is: under setting [11], 98 % of control; under setting [6], 98 % of control; under setting [12], 105 % of control.
Consider `O=NN(CCCl)C(=O)Nc1ccc(Br)cc1`, for which the T/C by setting is: (dose: 12.0 mg/kg/injection, schedule: Q01DX009 (ip), vehicle: carboxymethylcellulose (CMC)) 122 % of control; (dose: 12.0 mg/kg/injection, schedule: Q01DX015 (ip), vehicle: carboxymethylcellulose (CMC)) 124 % of control; (dose: 29.0 mg/kg/injection, schedule: Q01DX015 (ip), vehicle: carboxymethylcellulose (CMC)) 154 % of control; (dose: 44.0 mg/kg/injection, schedule: Q01DX015 (ip), vehicle: carboxymethylcellulose (CMC)) 114 % of control and 89 % of control; under setting [13], 157 % of control.
As to `COc1nccnc1NS(=O)(=O)c1ccc(N)cc1`, the T/C is 95 % of control under setting [14]; 92 % of control under setting [7]; 96 % of control under setting [15]; 106 % of control under setting [9]; 102 % of control under setting [16]; 92 % of control under setting [11].
Turning to `CC(C)C1=CCC(OC(=O)c2ccc(NC(=S)Nc3ccccc3)cc2)CC1` (stereo not given), the T/C under setting [17] was 92 % of control, the T/C under setting [18] was 96 % of control and the T/C under setting [19] was 89 % of control.
For the molecule `Cc1ccc(NC(=O)CCc2ccc(N3C(N)=NC(N)=NC3(C)C)cc2)cc1S(=O)(=O)F`, the T/C was 90 % of control under setting [20] and 108 % of control under setting [21].
As to `C[Se]c1ncnc2c(C3OC(CO)C(O)C3O)[nH]nc12` (stereo not given), the T/C is, setting by setting: (dose: 3.12 mg/kg/injection, schedule: Q01DX005 (ip), vehicle: saline) 106 % of control; (dose: 3.12 mg/kg/injection, schedule: Q01DX009 (ip), vehicle: saline) 112 % of control; (dose: 6.25 mg/kg/injection, schedule: Q01DX005 (ip), vehicle: saline) 109 % of control; (dose: 6.25 mg/kg/injection, schedule: Q01DX009 (ip), vehicle: saline) 94 % of control; (dose: 12.5 mg/kg/injection, schedule: Q01DX005 (ip), vehicle: saline) 104 % of control; (dose: 12.5 mg/kg/injection, schedule: Q01DX009 (ip), vehicle: saline) 91 % of control.
With `Clc1ccc(C2OCCO2)cc1`, the T/C reads like this: under setting [1], 94 % of control; under setting [3], 95 % of control; under setting [5], 107 % of control.
On to `Cc1cnc(SC(C)(C)C)c(C)c1`, for which the T/C under setting [14] is 109 % of control; the T/C under setting [7] was 100 % of control; the T/C under setting [22] is 98 % of control and 100 % of control; the T/C under setting [17] is 108 % of control; the T/C under setting [15] is 107 % of control; the T/C under setting [9] is 94 % of control and 104 % of control. In addition, the T/C runs as follows: under setting [23], 100 % of control and 106 % of control; under setting [18], 102 % of control; under setting [16], 109 % of control; under setting [11], 100 % of control and 107 % of control; under setting [24], 95 % of control and 97 % of control; under setting [19], 91 % of control.
Turning to `Cc1cc(N(CCOS(C)(=O)=O)CCOS(C)(=O)=O)ccc1C=Nc1cccc(Br)c1`, the T/C is 110 % of control (dose: 20.0 mg/kg/injection, schedule: Q04DX003 (ip), vehicle: Klucel (hydroxypropylcellulose) (HPC)); 121 % of control (dose: 40.0 mg/kg/injection, schedule: Q04DX003 (ip), vehicle: Klucel (hydroxypropylcellulose) (HPC)); 98 % of control (dose: 80.0 mg/kg/injection, schedule: Q04DX003 (ip), vehicle: Klucel (hydroxypropylcellulose) (HPC)); 120 % of control under setting [2].
In the case of `CCCC(OC(C)=O)C(C)[N+](=O)[O-]` (stereo not given), the T/C was 96 % of control (dose: 50.0 mg/kg/injection, schedule: Q01DX001 (ip), vehicle: saline with Tween-80); 92 % of control (dose: 100.0 mg/kg/injection, schedule: Q01DX001 (ip), vehicle: saline with Tween-80); 103 % of control (dose: 200.0 mg/kg/injection, schedule: Q01DX001 (ip), vehicle: saline with Tween-80).
On to `O=c1c2c3ccccc3c(=O)c=2c2ccccc12`, for which the T/C runs as follows: under setting [20], 98 % of control; under setting [21], 103 % of control.
Consider `CCOC(=O)c1cnc(SC)nc1Nc1ccccc1C`, for which the T/C under setting [1] was 96 % of control; the T/C under setting [2] was 97 % of control; the T/C under setting [3] was 93 % of control; the T/C under setting [4] was 98 % of control; the T/C under setting [5] is 91 % of control; the T/C under setting [6] is 98 % of control.
As to `CCOC(=O)c1nnn(-c2cccc(C(F)(F)F)c2)c1-c1ccccc1`, the T/C reads like this: under setting [22], 101 % of control; under setting [23], 105 % of control; under setting [24], 96 % of control.
Regarding `CCC(=O)/C=C/C1=C(C)CCCC1(C)C`, the T/C is 96 % of control (dose: 100.0 mg/kg/injection, schedule: Q01DX009 (ip), vehicle: saline with Tween-80); 95 % of control under setting [8]; 93 % of control (dose: 200.0 mg/kg/injection, schedule: Q01DX009 (ip), vehicle: saline with Tween-80); 97 % of control under setting [10]; 97 % of control under setting [12].
Turning to `C=CCN(c1ccccc1)P(=O)(N1CC1)N1CC1`, the T/C was 96 % of control under setting [13]; 96 % of control (dose: 200.0 mg/kg/injection, schedule: Q01DX001 (ip), vehicle: carboxymethylcellulose (CMC)); 96 % of control (dose: 400.0 mg/kg/injection, schedule: Q01DX001 (ip), vehicle: carboxymethylcellulose (CMC)).

These data come from PubChem BioAssay AID248 (DTP/NCI, 2004).
